Test results taken from patent US20240199676A1, “ANTIVIRAL COMPOUNDS AND METHODS OF MAKING AND USING THE SAME” (Gilead Sciences, Inc., priority 2022, published 2024).
Like-named read-outs stand apart in the source and are kept apart here.

What was measured:
[1] = GI S9 stability (Ex. Z), dog intestinal S9; type: in vitro ADME; conditions: pooled intestinal S9 fractions; dog intestinal S9, 1.0 mg/mL protein, 2 μM substrate, pH 7.4; read-out: GIS9 DOG T½ (per Ex. Z)
Protocol: Example Z: GI S9 stability data:
Stock solutions of test compounds in dimethyl sulfoxide (DMSO) having a final concentration of 10 mM were prepared and used in all experiments. Sekisui XenoTech (Kansas City, KS) provided pooled intestinal S9 fractions. All other chemicals were purchased from Sigma-Aldrich (St. Louis, MO) or VWR (West Chester, PA). Internal Standard/Quench (IS/Q) used to stop reactions was 100 nM labetalol in (by volume) methanol (10%) and acetonitrile (90%).
Stability in Intestinal S9 Fractions: Duplicate aliquots of test compound or positive control substrate were added to S9 stock diluted with phosphate buffered saline (137 mM NaCl, 2.7 mM KCl, 10 mM phosphate buffer), pH 7.4, to obtain a protein concentration of 1.0 mg/mL. The metabolic reactions were initiated by the addition of the substrates to the S9 reaction mixture to a final concentration of 2 μM. At 0, 10, 20, 30, 60 and 120 min, 25 μL aliquots of the reaction mixture were transferred to plates containing 225 μl of IS/Q solution. After quenching, the plates were centrifuged at 3000×g for 30 minutes. 150 μL aliquots of each supernatant were dried down then reconstituted with 300 μL water. Aliquots (10 μL) of the prepared samples were analyzed on a Thermo Q-Exactive mass spectrometer as described below.
Liquid Chromatography—Mass Spectrometry: Quantification of test compounds and control substrate was performed by analyte/internal standard peak area ratio (PAR) values measured on a Thermo Q-Exactive mass spectrometer coupled to a Dionex UltiMate 3000 HPLC with a Leap Technologies HTC PAL autosampler. The column used for analysis was a Waters Acquity BEH C18 (1.7 μm particle size, 2.1×50 mm). Mobile phase A consisted of 0.1% (v/v) formic acid in water. Mobile phase B consisted of 0.1% (v/v) formic acid in acetonitrile. Elution of analytes was achieved by a series of linear gradients varying the proportions of A and B. The mass spectrometer was calibrated on a weekly basis and mass tolerance of 5 ppm was used.
Metabolic stabilities in S9 fractions were determined by measuring the rates of disappearance of test compound and positive control substrate.
Data (% of substrate remaining) were plotted on a semi-log scale and fitted using an exponential decline model:
Where Ct—% of substrate remaining at time=t; C0—% of substrate remaining at time=0; t—time; T½—half-life The Half-life (T½) is determined by the following equation: […]
Assuming a first-order reaction, the slope (k) is extrapolated from the aforementioned plotted data.

[2] = tested on: Human Rhinovirus 1B (HRV1B) in H1-HeLa cells; test: H1-HeLa HRV-CTG 384-well Assay (Ex. Y), HRV1B; type: cell-based; conditions: Rhinovirus A, 96 h, read-out: EC50 H1-HeLa_HRV1B_HRV-CTG 384-well Assay (per Ex. Y)
From the text: Example Y: H1-HeLa HRV-CTG 384-well Assay
H1-Hela cell line (ATCC, Manassas, VA, Cat #CRL-1958) was maintained in Dulbecco's […] (DMEM) (Corning, New York, NY, Cat #15-018CM) supplemented with 10% fetal bovine serum (FBS) (Hyclone, Logan, UT, Cat #SH30071-03), and 1× Penicillin-Streptomycin-L-Glutamine (Corning, New York, NY, Cat #30-009-CI). Cells were passaged 2 times per week to maintain sub-confluent densities and were used for experiments at passage 5-30. The Human Rhinovirus 1B (HRV1B) (ATCC, Manassas, VA, Cat #VR-1645) , Human Rhinovirus 14 (HRV14) (ATCC, Manassas, VA, Cat #VR-284), and Human Rhinovirus 16 (HRV16) (ATCC, Manassas, VA, Cat #BR-283) was obtained through ATCC. Viral infection was monitored by determining viability of H1-HeLa cells as described below.
Test molecules are prepared in 100% DMSO in 384-well polypropylene plates (Greiner, Monroe, NC, Cat #784201) with 8 compounds per plate in grouped replicates of 4 at 10 serially diluted concentrations (1:3). The serially diluted compounds were transferred to low dead volume Echo plates (Labcyte, Sunnyvale, CA, Cat #LP-0200).
The test compounds were spotted to 384-well assay plates (Greiner, Monroe, NC, Cat#781091) at 200 nL per well using an Echo acoustic dispenser (Labcyte, Sunnyvale, CA). H1-HeLa cells were harvested and suspended in DMEM (supplemented with 2% FBS and 1× Penicillin-Streptomycin-L-Glutamine) and seeded to the pre-spotted assay plates at 5,000 cells per well in 30 μL. HRV1B, HRV14, and HRV16 was diluted in DMEM (supplemented with 2% FBS and 1× Penicillin-Streptomycin-L-Glutamine) at 97.1 million Infectious Units (IU) per mL, 151 million IU per mL and 221 million IU per mL respectively. 10 μL of virus per well was added to the assay plates containing cells and compounds, for an MOI of 0.5, 1.0, and 0.25 respectively. The assay plates were incubated for 4 days at 37° C. and 5% CO2. At the end of incubation, Celltiter-Glo (Promega, Madison, WI, Cat #(Ga7573) was prepared. The assay plates and Celltiter-Glo reagent were equilibrated to room temperature for at least 15 minutes. 40 μL per well of Celltiter-Glo reagent was added and the plates were incubated at room temperature for 15 minutes before reading the luminescence signal on an EnVision multimode plate reader (Perkin Elmer, Waltham, MA). Rupintrivir was used as positive control and DMSO was used as negative control. Values were normalized to the positive and negative controls (as 0% and 100% replication, respectively) and data was fitted using non-linear regression analysis by Gilead's dose response tool. The EC50 value for each compound was defined as the concentration reducing viral replication by 50%.

[3] = H1-HeLa cells, HRV1B MOI 0.5, 4 days, Celltiter-Glo

| SMILES | half-life at 2 μM [1] | EC50 [2, 3] | EC50 ([2]; HRV1B, H1-HeLa) |
| --- | --- | --- | --- |
| CC(C)C(=O)OC[C@@]1(C#N)O[C@@H](c2ccc3c(N)ncnn23)[C@H](O)[C@@H]1O [Compound 1, ((2R,3S,4R,5S)-5-(4-aminopyrrolo[2,1-f][1,2,4]triazin-7-yl)-2-cyano-3,4-dihydroxytetrahydrofuran-2-yl)methyl isobutyrate] | 2.02 h | 3.05 µM |  |
| CC(C)C(=O)O[C@H]1[C@H](c2ccc3c(N)ncnn23)O[C@](C#N)(COC(=O)c2ccccc2)[C@H]1O [Compound 22, ((2R,3S,4R,5S)-5-(4-aminopyrrolo[2,1-f][1,2,4]triazin-7-yl)-2-cyano-3-hydroxy-4-(isobutyryloxy)tetrahydrofuran-2-yl)methyl benzoate] |  | 12.8 µM |  |
| CC(=O)OC[C@@]1(C#N)O[C@@H](c2ccc3c(NC(=O)C(C)C)ncnn23)[C@H](O)[C@@H]1O [Compound 23, ((2R,3S,4R,5S)-2-cyano-3,4-dihydroxy-5-(4-isobutyramidopyrrolo[2,1-f][1,2,4]triazin-7-yl)tetrahydrofuran-2-yl)methyl acetate] |  | 33.5 µM |  |
| CC1(C(=O)OC[C@@]2(C#N)O[C@@H](c3ccc4c(N)ncnn34)[C@H](O)[C@@H]2O)CCC1 [Compound 24, ((2R,3S,4R,5S)-5-(4-aminopyrrolo[2,1-f][1,2,4]triazin-7-yl)-2-cyano-3,4-dihydroxytetrahydrofuran-2-yl)methyl 1-methylcyclobutane-1-carboxylate] |  | 3.43 µM |  |
| N#C[C@]1(COC(=O)[C@H]2CCC(=O)O2)O[C@@H](c2ccc3c(N)ncnn23)[C@H](O)[C@@H]1O [Compound 25, ((2R,3S,4R,5S)-5-(4-aminopyrrolo[2,1-f][1,2,4]triazin-7-yl)-2-cyano-3,4-dihydroxytetrahydrofuran-2-yl)methyl (R)-5-oxotetrahydrofuran-2-carboxylate] |  | 3.13 µM |  |
| CC(C)(C)CC(=O)Nc1ncnn2c([C@@H]3O[C@](C#N)(COC(=O)CC(C)(C)C)[C@@H](O)[C@H]3O)ccc12 [Compound 26, ((2R,3S,4R,5S)-2-cyano-5-(4-(3,3-dimethylbutanamido)pyrrolo[2,1-f][1,2,4]triazin-7-yl)-3,4-dihydroxytetrahydrofuran-2-yl)methyl 3,3-dimethylbutanoate] |  | 50 µM |  |
| CCC(C)(C)CC(=O)OC[C@@]1(C#N)O[C@@H](c2ccc3c(N)ncnn23)[C@H](O)[C@@H]1O [Compound 27, ((2R,3S,4R,5S)-5-(4-aminopyrrolo[2,1-f][1,2,4]triazin-7-yl)-2-cyano-3,4-dihydroxytetrahydrofuran-2-yl)methyl 3,3-dimethylpentanoate] |  | 50 µM |  |
| CC(=O)OC[C@@]1(C#N)O[C@@H](c2ccc3c(N)ncnn23)[C@H](OC(C)=O)[C@@H]1OC(C)=O [Compound 28, (2R,3S,4S,5S)-2-(acetoxymethyl)-5-(4-aminopyrrolo[2,1-f][1,2,4]triazin-7-yl)-2-cyanotetrahydrofuran-3,4-diyl diacetate] |  | 9.45 µM |  |
| CC(C)(CF)C(=O)OC[C@@]1(C#N)O[C@@H](c2ccc3c(N)ncnn23)[C@H](O)[C@@H]1O [Compound 29, ((2R,3S,4R,5S)-5-(4-aminopyrrolo[2,1-f][1,2,4]triazin-7-yl)-2-cyano-3,4-dihydroxytetrahydrofuran-2-yl)methyl 3-fluoro-2,2-dimethylpropanoate] |  | 9.37 µM |  |
| CC(C)C(=O)Nc1ncnn2c([C@@H]3O[C@](C#N)(CO)[C@@H](O)[C@H]3O)ccc12 [Compound 30, N-(7-((2S,3R,4S,5R)-5-cyano-3,4-dihydroxy-5-(hydroxymethyl)tetrahydrofuran-2-yl)pyrrolo[2,1-f][1,2,4]triazin-4-yl)isobutyramide] |  | 27.5 µM |  |
| N#C[C@]1(COC(=O)C2CC3(CCC3)C2)O[C@@H](c2ccc3c(N)ncnn23)[C@H](O)[C@@H]1O [Compound 32, ((2R,3S,4R,5S)-5-(4-aminopyrrolo[2,1-f][1,2,4]triazin-7-yl)-2-cyano-3,4-dihydroxytetrahydrofuran-2-yl)methyl spiro[3.3]heptane-2-carboxylate] |  | 3.18 µM |  |
| CC1(CC(=O)OC[C@@]2(C#N)O[C@@H](c3ccc4c(N)ncnn34)[C@H](O)[C@@H]2O)CCC1 [Compound 33, ((2R,3S,4R,5S)-5-(4-aminopyrrolo[2,1-f][1,2,4]triazin-7-yl)-2-cyano-3,4-dihydroxytetrahydrofuran-2-yl)methyl 2-(1-methylcyclobutyl)acetate] |  | 35.1 µM |  |
| [H]/N=c1/c2ccc([C@@H]3O[C@](C#N)(CO)[C@@H](O)[C@H]3O)n2ncn1COC(=O)C(C)C [Compound 34, (7-((2S,3R,4S,5R)-5-cyano-3,4-dihydroxy-5-(hydroxymethyl)tetrahydrofuran-2-yl)-4-iminopyrrolo[2,1-f][1,2,4]triazin-3(4H)-yl)methyl isobutyrate] |  | 28.7 µM |  |
| CCC(C)(C)C(=O)OC[C@@]1(C#N)O[C@@H](c2ccc3c(N)ncnn23)[C@H](O)[C@@H]1O [Compound 35, ((2R,3S,4R,5S)-5-(4-aminopyrrolo[2,1-f][1,2,4]triazin-7-yl)-2-cyano-3,4-dihydroxytetrahydrofuran-2-yl)methyl 2,2-dimethylbutanoate] |  | 19.2 µM |  |
| CC(C)(C)CCC(=O)OC[C@@]1(C#N)O[C@@H](c2ccc3c(N)ncnn23)[C@H](O)[C@@H]1O [Compound 36, ((2R,3S,4R,5S)-5-(4-aminopyrrolo[2,1-f][1,2,4]triazin-7-yl)-2-cyano-3,4-dihydroxytetrahydrofuran-2-yl)methyl 4,4-dimethylpentanoate] |  | 3.1 µM |  |
| CC[C@@H](C)C(=O)OC[C@@]1(C#N)O[C@@H](c2ccc3c(N)ncnn23)[C@H](O)[C@@H]1O [Compound 37, ((2R,3S,4R,5S)-5-(4-aminopyrrolo[2,1-f][1,2,4]triazin-7-yl)-2-cyano-3,4-dihydroxytetrahydrofuran-2-yl)methyl (R)-2-methylbutanoate] |  | 5.71 µM |  |
| N#C[C@]1(COC(=O)Cc2ccccc2)O[C@@H](c2ccc3c(N)ncnn23)[C@H](O)[C@@H]1O [Compound 38, ((2R,3S,4R,5S)-5-(4-aminopyrrolo[2,1-f][1,2,4]triazin-7-yl)-2-cyano-3,4-dihydroxytetrahydrofuran-2-yl)methyl 2-phenylacetate] |  |  | 3.12 µM |
